We go through 26 molecules from ChEMBL document CHEMBL4265980, “Hemozoin inhibiting 2-phenylbenzimidazoles active against malaria parasites” (Eur J Med Chem, 2018).

Active and inactive are the calls of the source. The calls are words filed in the database; no cut-off is given here.

A short description of data set [1]: Inhibition of beta hematin formation after 5 to 6 hrs by NP40 detergent-based assay.
Data set [2] has as its system Plasmodium falciparum. The data set is described as follows: Antiplasmodial activity against asexual erythrocyte stage of chloroquine-sensitive Plasmodium falciparum NF54 infected in human red blood cells after 48 hrs by lactate dehydrogenase assay. In kind it is functional, organism-based. The conditions noted are these: for IC50: NF54, 48 h.
A short description of data set [3]: Selectivity index, ratio of IC50 for CHO cells to IC50 for asexual erythrocyte stage of chloroquine-resistant Plasmodium falciparum Dd2 infected in human red blood cells. In kind it is toxicity, cell-based. The conditions noted are these: Chinese hamster, read-out: Ratio IC50.
Data set [4] deals with Plasmodium falciparum. The data set is described as follows: Antiplasmodial activity against Plasmodium falciparum NF54 assessed as decrease in hemozoin levels after 32 hrs by spectrophotometric analysis. In kind it is functional, organism-based.
For data set [5], the system named is Plasmodium falciparum. The data set is described as follows: Antiplasmodial activity against Plasmodium falciparum NF54 assessed as increase in undigested hemoglobin levels after 32 hrs by spectrophotometric analysis. In kind it is functional, organism-based.
Data set [6] in a line: Resistance index, ratio of IC50 for asexual erythrocyte stage of chloroquine-resistant Plasmodium falciparum Dd2 infected in human red blood cells to IC50 for asexual erythrocyte stage of chloroquine-sensitive Plasmodium falciparum NF54 infected in human red blood cells. In kind it is functional.
Data set [7] has as its system Plasmodium falciparum. The data set is described as follows: Antiplasmodial activity against asexual erythrocyte stage of chloroquine-resistant Plasmodium falciparum Dd2 infected in human red blood cells after 48 hrs by lactate dehydrogenase assay. Type of data set: functional, organism-based. The conditions noted are these: Dd2, 48 h.
Data set [8] is described as follows: Selectivity index, ratio of IC50 for CHO cells to IC50 for asexual erythrocyte stage of chloroquine-sensitive Plasmodium falciparum NF54 infected in human red blood cells. Type of data set: toxicity, cell-based. The conditions noted are these: Chinese hamster, read-out: Ratio IC50.
The test system of data set [9] is CHO. The data set is described as follows: Cytotoxicity against CHO cells by MTT assay. Type of data set: cell-based. The conditions noted are these: Cricetulus griseus. (In general: Formazan colour is commonly taken as a measure of viable cells.)

Molecule `O=C(Nc1ccc(-c2nc3ccccc3[nH]2)cc1)c1ccc(Cl)cc1Cl` returned a 1/IC50 in data set [1] of 0.0111 µM⁻¹. Moreover, the IC50 in data set [1] is 90 µM; in data set [2] (read-out: IC50), 7.2 µM; in data set [2] (read-out: pIC50 (converted)), 7.24 µM.

For `CNC(=O)c1cncc(Br)c1`, the inhibition result in data set [1] is “inactive”. Also, the outcome in [2] was inactive.

On to `O=C(Nc1ccc(-c2nc3ccccc3[nH]2)cc1)c1ccccc1[N+](=O)[O-]`, for which the 1/IC50 in data set [1] was determined as 0.0346 µM⁻¹. Besides, the IC50 in data set [1] was 28.9 µM; in data set [2] (read-out: IC50) it was 12.3 µM; in [2] (read-out: pIC50 (converted)) it was 12.3 µM.

In data set [1], `O=C(Nc1ccc(-c2nc3ccccc3[nH]2)cc1)c1ccccc1` showed a 1/IC50 of 0.0003 µM⁻¹ and an IC50 of 3900 µM. In addition, the IC50 in data set [2] (read-out: pIC50 (converted)) was 257 µM.

For `COc1ccccc1C(=O)Nc1ccc(-c2nc3ccccc3[nH]2)cc1`, the 1/IC50 in data set [1] was 0.0257 µM⁻¹. Besides, the values for the IC50 in [1], in data set [2] (read-out: IC50) and in data set [2] (read-out: pIC50 (converted)) were 38.9 µM, 5.5 µM and 5.5 µM, respectively.

In turn, `O=C(Nc1ccc(-c2nc3ccccc3[nH]2)cc1)c1cccc(Cl)c1` registered a 1/IC50 in [1] of 0.0398 µM⁻¹. For the same molecule, the IC50 in data set [1] is 25.1 µM; in data set [2] (read-out: IC50), 1.21 µM; in [2] (read-out: pIC50 (converted)), 1.2 µM.

For `O=C(Nc1ccc(-c2nc3ccccc3[nH]2)cc1)c1cccc(Br)c1`, the 1/IC50 in data set [1] amounted to 0.0408 µM⁻¹. For the same molecule, the IC50 in data set [1] was 24.5 µM; in data set [2] (read-out: IC50), 1.3 µM; in data set [2] (read-out: pIC50 (converted)), 1.29 µM.

`O=C(Nc1ccc(-c2nc3ccccc3[nH]2)cc1)c1cncc(Br)c1`: the selectivity ratio in [3] was 197; in data set [8], 461. In addition, the outcome in data set [4] and in data set [5] was Active. Besides, the “Ratio IC50” value in data set [6] is given as 2.4. Further, the IC50 in [7] is 0.96 µM; in data set [1], 32 µM; in [2] (read-out: IC50), 0.41 µM; in data set [2] (read-out: pIC50 (converted)) it was 0.407 µM; in data set [9], 189 µM. This molecule yielded a 1/IC50 in [1] of 0.0313 µM⁻¹.

Take `Nc1ccc(-c2nc3ccccc3[nH]2)cc1`: in [1], the inhibition result is “inactive”. For the same molecule, in data set [2], the result was inactive.

As for `O=C(Nc1ccc(-c2nc3ccccc3[nH]2)cc1)c1ccccc1Cl`, the 1/IC50 in [1] turned out to be 0.0262 µM⁻¹. Also, the IC50 in data set [1] is 38.2 µM; in [2] (read-out: IC50) it was 15 µM; in data set [2] (read-out: pIC50 (converted)), 15.1 µM.

With `CC(C)(C)c1ccc(C(=O)Nc2ccc(-c3nc4ccccc4[nH]3)cc2)cc1`, the 1/IC50 in data set [1] is 0.0028 µM⁻¹. Also, the IC50 was 358 µM in data set [1], 2 µM in data set [2] (read-out: IC50) and 2 µM in [2] (read-out: pIC50 (converted)).

`O=C(Nc1ccc(-c2nc3ccccc3[nH]2)cc1)c1ccc[nH]1` yielded a 1/IC50 in [1] of 0.0215 µM⁻¹. The IC50 in data set [1] was 46.6 µM; in data set [2] (read-out: IC50), 1.2 µM; in [2] (read-out: pIC50 (converted)), 1.2 µM.

In the case of `CC(=O)Nc1ccc(-c2nc3ccccc3[nH]2)cc1`, the inhibition entry in data set [1] was “inactive”. Moreover, in [2], the result was inactive.

`O=C(Nc1ccc(-c2nc3ccccc3[nH]2)cc1)c1cccnc1`: the 1/IC50 in data set [1] is 0.0281 µM⁻¹. Also, the IC50 in data set [1] is 35.6 µM; in [2] (read-out: IC50), 11.6 µM; in [2] (read-out: pIC50 (converted)), 11.5 µM.

`CC(=O)Nc1ccccc1`: the inhibition entry in data set [1] is “inactive”. Besides, the outcome in [2] was inactive.

In data set [1], `O=C(Nc1ccc(-c2nc3ccccc3[nH]2)cc1)c1ccco1` registered a 1/IC50 of 0.0119 µM⁻¹. For the same molecule, the IC50 in data set [1] was 84.1 µM; in data set [2] (read-out: IC50) it was 5.9 µM; in data set [2] (read-out: pIC50 (converted)), 5.89 µM.

As to `O=C(Nc1ccc(-c2nc3ccccc3[nH]2)cc1)c1cccs1`, the 1/IC50 in data set [1] worked out at 0.0236 µM⁻¹. Further, the IC50 in [1] is 42.4 µM; in data set [2] (read-out: IC50) it was 7.2 µM; in [2] (read-out: pIC50 (converted)), 7.24 µM.

Regarding `O=C(Nc1ccc(-c2nc3ccccc3[nH]2)cc1)c1cc([N+](=O)[O-])cc([N+](=O)[O-])c1`, the figures for the selectivity ratio in [3] and in data set [8] were 665 and 308, respectively. Besides, the “Ratio IC50” value in data set [6] was 0.46. For the same molecule, the IC50 in [7] is 0.31 µM; in data set [1], 13.3 µM; in data set [2] (read-out: IC50), 0.67 µM; in data set [2] (read-out: pIC50 (converted)), 0.676 µM; in [9] it was 206 µM. This molecule came in with a 1/IC50 in data set [1] of 0.0752 µM⁻¹.

On to `CC[C@H]1CN2CCc3cc(OC)c(OC)cc3[C@@H]2C[C@@H]1C[C@H]1NCCc2cc(OC)c(OC)cc21` [EMETINE], for which the IC50 in data set [9] is 0.12 µM.

`O=C(Nc1ccc(-c2nc3ccccc3[nH]2)cc1)c1ccc(Cl)cc1` returned a 1/IC50 in [1] of 0.0006 µM⁻¹. The IC50 in data set [1] is 1790 µM; in data set [2] (read-out: IC50), 64 µM; in data set [2] (read-out: pIC50 (converted)) it was 64.6 µM.

Regarding `c1ccc2[nH]cnc2c1`, in data set [1], the inhibition entry was “inactive”. The result in data set [2] was inactive.

As to `O=C(Nc1ccc(-c2nc3ccccc3[nH]2)cc1)c1cc(Cl)nc(Cl)c1`, the selectivity ratio stood at 541 in data set [3] and 347 in data set [8]. In addition, the “Ratio IC50” value in data set [6] was found to be 0.64. Moreover, the IC50 in [7] was 0.34 µM; in data set [1] it was 16.8 µM; in [2] (read-out: IC50) it was 0.53 µM; in [2] (read-out: pIC50 (converted)), 0.525 µM; in data set [9], 184 µM. Also, the 1/IC50 in data set [1] came out at 0.0595 µM⁻¹.

On to `O=C(Nc1ccccc1)c1cncc(Br)c1`, for which, in data set [1], the inhibition result is “inactive”. In addition, the outcome in [2] was inactive.

For the molecule `O=C(O)c1cncc(Br)c1`, in data set [1], the inhibition entry is “inactive”. Moreover, in [2], the result was inactive.

In turn, `O=C(Nc1ccc(-c2nc3ccccc3[nH]2)cc1)c1cccc(C(F)(F)F)c1` came in with a 1/IC50 in [1] of 0.0356 µM⁻¹. For the same molecule, the IC50 in data set [1] was 28.1 µM; in data set [2] (read-out: IC50), 1.34 µM; in data set [2] (read-out: pIC50 (converted)) it was 1.35 µM.

`O=C(Nc1ccc(-c2nc3ccccc3[nH]2)cc1)c1cncc(C(F)(F)F)c1`: the selectivity ratio in data set [3] amounted to 32; in data set [8], 44. The “Ratio IC50” value in data set [6] came to 1.4. The IC50 was 1.1 µM in data set [7]; 16.6 µM in data set [1]; 0.8 µM in [2] (read-out: IC50); 0.794 µM in data set [2] (read-out: pIC50 (converted)); 35 µM in data set [9]. The molecule further yielded a 1/IC50 in data set [1] of 0.0602 µM⁻¹.
